Values quoted from earlier work, collected in US20060057203A1 (priority 2002, published 2006).

solubility in water: practically insoluble
Structure (SMILES): NC(=O)N1c2ccccc2CC(=O)c2ccccc21 [oxcarbazepine]
